Source: patent US5110976A, “Insecticidal composition comprising more than one active ingredient” (priority 1985, dated 1992)

How the values were obtained:
T. confusum [1] = test: Contact method, synergism between stereoisomers (Table 2); assay type: in vivo; details: Tribolium confusum, 24 h
Method: The stereoisomers are dissolved in a 1:2 mixture of mineral oil and acetone and filter paper discs (Whatman No. 1., diameter 9 cm) are impregnated with the corresponding dosage of the solution of the active ingredient. The acetone is allowed to evaporate and the insects are examined on filter paper discs placed into Petri-dishes. Three parallels are used for each dose and 15 animals are placed in each Petri-dish. Mortality rate is determined after 24 hours. The corrected mortality % data are calculated by means of the Abbot formula.
The test is carried out on T. confusum and the following results are obtained by the contact method for various active ingredient doses.
The test is carried out according to the method described in Example 20.

T. confusum [2] = test: Topical LD50 (Table 3); assay type: in vivo, 1-2 weeks' old imagos; details: topical, abdominal side
Method: (§1) In Table 3 the LD50 values of the Ig and Ii isomers and those of the Ib isomer-pair are disclosed. The data are topically measured.
(§2) The active ingredients are dissolved in 2-ethoxyethanol (cellosolve) and 0.3 μl droplets of the solutions are applied onto the dorsal cuticulum of 3-5 days' old female house flies. 10 animals are used and 2 parallels are carried out for each dose. The tests are carried out for 5 dose levels between activity limits of 0% and 100%. After treatment the flies are placed into glass vials. Mortality is determined after 24 hours. Data are transformed to log10 dosage and probit mortality. LD50 and confidence interval values are calculated by linear regression analysis of the log-probit data. The expected values required for the calculation of synergism are obtained by means of harmonic average. The synergistic factor is the quotient of the expected and measured values.
The active ingredients are dissolved in 2-ethoxyethanol and 0.3 μl droplets of the solutions are applied onto the abdominal side of 1-2 weeks' old imagos. Treatment is carried out with 2 parallels and 20 animals for each dose by using 5 dose levels in the range between activity limits of 0% and 100%. Evaluation and determination of LD50 values and synergistic factors are carried out as described in Example 21.

Musca domestica [3] = test: Topical LD50 (Table 3); assay type: in vivo, house fly (Musca domestica), 3-5 days' old females; details: topical, dorsal cuticulum; 24 hours
Method: as §1, §2

Musca domestica [4] = test: Filter paper disc contact test (Table 11); assay type: in vivo, house fly (Musca domestica); details: Musca domestica, 24 h
Method: In Table 1 the activity of various stereoisomers of cypermethrin on the house fly (Musca domestica) is shown.
(§3) The active ingredient is dissolved in a 1:2 mixture of oil and acetone; filter paper discs (Whatman No. 1, diameter 9 cm) are impregnated with the solutions of the corresponding stereoisomers and enantiomer-pairs, respectively. The acetone is allowed to evaporate, whereupon the insects are exposed to filter papers discs placed in Petri-dishes. Three parallels are used on each dose and 15 insects are placed into each Petri-dish. The percental mortality is determined after 24 hours. The corrected percent mortality is calculated by means of the Abbot Formula.

Tribolium confusum = test: Contact test on Tribolium confusum (Table 12); assay type: in vivo; details: Tribolium confusum, 24 h
Method: as §3
It appears from Table 12 that the increased activity shown in Example 41 is due to the synergistic effect of the trans-isomers to Tribolium confusum.

T. confusum [5] = test: Activity as function of time, toxic symptoms (Table 16); assay type: in vivo, flour beetle (T. confusum), imagos
Method: as §3
Activity of cypermethrin stereoisomer-pairs as function of time on flour beetle (T. Confusum).
Flour beetle (T. confusum) imagos are exposed in Petri-dishes according to the method described in Example 43. For each dose 3 parallels are used and 15 animals are applied for each parallel test. In each point of time the insects lying on their backs are counted and the percental results are expressed in Table 16.

Musca domestica [6] = details: bioresmetrine = 100; cited from earlier work
Phaedon cochleariae = details: bioresmetrine = 100; cited from earlier work

Compound: CC1(C)[C@H](C=C(Cl)Cl)[C@H]1C(=O)O[C@H](C#N)c1cccc(Oc2ccccc2)c1 [Ig]
- mortality at 110 µg/disc (T. confusum [1]; 0.11 mg/disc): 80%
- mortality at 330 µg/disc (T. confusum [1]; 0.33 mg/disc): 94%
- mortality at 1000 µg/disc (T. confusum [1]; 1.00 mg/disc): 100%
- mortality at 3000 µg/disc (T. confusum [1]; 3.00 mg/disc): 100%
- LD50 measured (T. confusum [2]): 73.6 ng/insect
- LD50 measured (Musca domestica [3]): 13.4 ng/insect
- mortality at 40 µg/disc (Musca domestica [4]; 0.04 mg/disc): 48%
- mortality at 110 µg/disc (Musca domestica [4]; 0.11 mg/disc): 68%
- mortality at 330 µg/disc (Musca domestica [4]; 0.33 mg/disc): 83%
- mortality at 1000 µg/disc (Musca domestica [4]; 1.00 mg/disc): 100%
- mortality at 3000 µg/disc (Musca domestica [4]; 3.00 mg/disc): 100%
- mortality at 110 µg/disc (Tribolium confusum; 0.11 mg/disc): 70%
- mortality at 330 µg/disc (Tribolium confusum; 0.33 mg/disc): 92%
- mortality at 1000 µg/disc (Tribolium confusum; 1.00 mg/disc): 100%
- mortality at 3000 µg/disc (Tribolium confusum; 3.00 mg/disc): 100%
- % of insects showing toxic symptoms (T. confusum [5]; 30 minutes): 0%
- % of insects showing toxic symptoms (T. confusum [5]; 30 minutes, 0.33 mg/disc): 0%
- % of insects showing toxic symptoms (T. confusum [5]; 30 minutes, 1.00 mg/disc): 15%
- % of insects showing toxic symptoms (T. confusum [5]; 30 minutes, 3.00 mg/disc): 68%
- % of insects showing toxic symptoms (T. confusum [5]; 60 minutes): 18%
- % of insects showing toxic symptoms (T. confusum [5]; 60 minutes, 0.33 mg/disc): 34%
- % of insects showing toxic symptoms (T. confusum [5]; 60 minutes, 1.00 mg/disc): 98%
- % of insects showing toxic symptoms (T. confusum [5]; 60 minutes, 3.00 mg/disc): 100%
- % of insects showing toxic symptoms (T. confusum [5]; 120 minutes): 30%
- % of insects showing toxic symptoms (T. confusum [5]; 120 minutes, 0.33 mg/disc): 70%
- % of insects showing toxic symptoms (T. confusum [5]; 120 minutes, 1.00 mg/disc): 100%
- % of insects showing toxic symptoms (T. confusum [5]; 120 minutes, 3.00 mg/disc): 100%
- % of insects showing toxic symptoms (T. confusum [5]; 180 minutes): 34%
- % of insects showing toxic symptoms (T. confusum [5]; 180 minutes, 0.33 mg/disc): 84%
- % of insects showing toxic symptoms (T. confusum [5]; 180 minutes, 1.00 mg/disc): 100%
- % of insects showing toxic symptoms (T. confusum [5]; 180 minutes, 3.00 mg/disc): 100%
- activity related to bioresmetrine (100) (Musca domestica [6]): 1400
- activity related to bioresmetrine (100) (Phaedon cochleariae): 2200
